This is an account of results in US6017512A, “Radiolabeled peptides” (Diatide, Inc., priority 1997, dated 2000).

The term Ki denotes a dissociation constant, usually derived from enzyme kinetics or from competition with a known ligand. Low values mean higher affinity, high ones lower affinity.

Numbered stars: 1 amine (or outer) side, 2 acyl side, 3 side chain; on linkers, the order of the positions; unused ones are H or OH. Bridge positions count the residues as written; N and C are the ends. Square brackets hold non-standard residues; d marks the D form. Peptide text beside a SMILES is read from it. * marks the point of attachment. hhCys(CH2CO) = O=C([C@H](CCCSCC(=O)[*:3])N[*:1])[*:2]; X9 = CC(C)(S)CNCCN(CCCCC(=O)*)CC(C)(C)S; X3 = CC(C)(S)CNCCN(CCCCCN*)CC(C)(C)S; NMeF = CN[C@@H](Cc1ccccc1)C(=O)O; hCys = N[C@@H](CCS)C(=O)O

In this assay the target is T1, somatostatin receptors (Rattus norvegicus, UniProt P30680).
T1 construct: endogenous in cells; host or cells: AR42J rat pancreatic tumor cell line, membrane preparation
T1 sequence (P30680 whole entry): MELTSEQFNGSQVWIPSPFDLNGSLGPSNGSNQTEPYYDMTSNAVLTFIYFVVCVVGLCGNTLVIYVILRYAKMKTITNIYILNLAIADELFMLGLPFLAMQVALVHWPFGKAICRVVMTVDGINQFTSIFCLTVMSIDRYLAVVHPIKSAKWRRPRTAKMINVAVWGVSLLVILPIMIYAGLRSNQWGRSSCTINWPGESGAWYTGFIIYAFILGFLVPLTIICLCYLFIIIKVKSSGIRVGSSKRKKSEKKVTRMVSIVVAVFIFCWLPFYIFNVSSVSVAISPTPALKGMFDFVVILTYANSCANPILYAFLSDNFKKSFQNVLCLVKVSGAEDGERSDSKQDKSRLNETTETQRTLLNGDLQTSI
Kind of assay: Inhibition of binding of [125I-Tyr11]somatostatin-14 to AR42J rat pancreatic tumor cell membranes. The following applies: uncomplexed peptides, displacement of [125I-Tyr11]somatostatin-14 (0.5 nM). Here is the method: Inhibition of Binding of [^125 I-Tyr^11 ]somatostatin-14 to AR42J Rat Pancreatic Tumor Cell Membranes
The rat pancreatic tumor cell line AR42J which expresses the somatostatin receptor was cultured in Dulbecco's minimal essential media (DMEM) supplemented with 10% fetal bovine serum (FBS) and 8 mM glutamine in a humidified 5% CO2 atmosphere at 37° C. in T-flasks. Harvested cells were homogenized in cold 50 mM Tris-HCl buffer (pH 7.4) and the homogenate then centrifuged at 39,000 g for 10 min at 4° C. Pellets were washed once with buffer and then resuspended in an ice-cold solution of 10 mM Tris-HCl (pH 7.4). Equal aliquots of this cell membrane preparation were incubated with [^125 I-Tyr^11 ]somatostatin-14 (at a final concentration of 0.5 nM and 750,000 cpm/mL, at a specific activity of 2000 Ci/mmol, Amersham, Arlington Heights, Ill.) and peptide or peptide-rheniumcomplex at a final concentration of from 10^-11 M to 10^-6 M in a solution of 50 mM HEPES (pH 7.4) containing 1% bovine serum albumin (BSA), 5 mM MgCl2, Trasylol (200,000 International Units), bacitracin (0.02 mg/mL) and phenylmethylsulfonylfluoride (0.02 mg/mL) for 25 min at 30° C. Using a filtration manifold, this mixture was filtered through a polyethyleneimine-washed GC/F filter (Whatman, Maidstone, England), and the residue remaining on the filter washed thrice with 5 mL cold HEPES buffer. The filter and a sample of the filter washings were then counted in a gamma counter. To assess non-specific binding, the assay was performed in the presence of unlabeled somatostatin-14 at 200 nM. Data analysis including Hill plots of the data provided inhibition constants (see Bylund & Yamamura, "Methods of receptor binding", in Methods in Neurotransmitter Receptor Analysis, Yamamura et al., eds., Raven Press: New York, 1990).
For orientation: In a radioligand displacement assay an active substance lowers the binding of a labelled ligand.
Molecule `C[C@@H](O)[C@@H]1NC(=O)[C@H](CCCCN)NC(=O)[C@@H](Cc2c[nH]c3ccccc23)NC(=O)[C@H](Cc2ccccc2)NC(=O)[C@H](Cc2ccccc2)NC(=O)CSCC[C@@H](C(=O)O)NC(=O)[C@H](Cc2ccccc2)NC1=O` [CH2 CO.FFWD KTF.Hcy] ({CH2CO}-FF[dW]KTF[hCys]-OH; thioether N-7) yielded a Ki of 9.8 nM. In the case of `CC(C)[C@@H]1NC(=O)[C@H](CCCCN)NC(=O)[C@@H](Cc2c[nH]c3ccccc23)NC(=O)[C@H](Cc2ccc(O)cc2)NC(=O)[C@H](Cc2ccccc2)N(C)C(=O)[C@H](CCC(=O)NCCCCCN(CCNCC(C)(C)S)CC(C)(C)S)NC1=O` [cyclo.(N--CH3)F.YWD KV.E.[BAM], cyclo.(N--CH3)Phe--Tyr--D--Trp--Lys--Val--Glu(BAM)] (cyclo([NMeF]Y[dW]KVE(X3))) it was 2.6 nM. In the case of `CC(C)[C@@H]1NC(=O)[C@H](CCCCN)NC(=O)[C@@H](Cc2c[nH]c3ccccc23)NC(=O)[C@H](Cc2ccc(O)cc2)NC(=O)[C@H](CS)NC(=O)[C@H](CS)NC1=O` [cyclo.CYWD KVC, cyclo Cys--Tyr--D--Trp--Lys--Val--Cys] (cyclo(CY[dW]KVC)) it was 0.43 nM. Next, `C[C@@H](O)[C@@H]1NC(=O)[C@H](Cc2ccccc2)NC(=O)[C@H]([C@@H](C)O)NC(=O)[C@H](CCCCN)NC(=O)[C@@H](Cc2c[nH]c3ccccc23)NC(=O)[C@H](Cc2ccccc2)NC(=O)[C@H](Cc2ccccc2)NC(=O)[C@H](CC(N)=O)NC(=O)CSC[C@@H](C(=O)O)NC1=O` [CH2 CO.NFFWD KTFTC] ({CH2CO}-NFF[dW]KTFTC-OH; thioether N-9): 2.7 nM. Regarding `C[C@@H](O)[C@@H]1NC(=O)[C@H](CCCCN)NC(=O)[C@@H](Cc2c[nH]c3ccccc23)NC(=O)[C@H](Cc2ccccc2)NC(=O)[C@H](Cc2ccccc2)NC(=O)CSC[C@@H](C(=O)O)NC(=O)[C@H](Cc2ccccc2)NC1=O` [CH2 CO.FFWD KTFC] ({CH2CO}-FF[dW]KTFC-OH; thioether N-7), the affinity corresponds to a Ki of 4 nM. This Ki and that of the molecule before are within 1.5-fold of each other. In the case of `C[C@@H](O)[C@@H]1NC(=O)[C@H](CCCCN)NC(=O)[C@@H](Cc2c[nH]c3ccccc23)NC(=O)[C@H](Cc2ccc(O)cc2)NC(=O)[C@H](Cc2ccccc2)NC(=O)CSC[C@@H](C(N)=O)NC(=O)[C@H](Cc2ccccc2)NC1=O` [CH2 CO.FYWD KTFC.amide] ({CH2CO}-FY[dW]KTFC-NH2; thioether N-7) it was 0.16 nM; in that of `C[C@@H](O)[C@@H]1NC(=O)[C@H](CCCCN)NC(=O)[C@@H](Cc2c[nH]c3ccccc23)NC(=O)[C@H](Cc2ccccc2)NC(=O)[C@H](Cc2ccccc2)NC(=O)CSC[C@@H](C(=O)NCCCCCN(CCNCC(C)(C)S)CC(C)(C)S)NC(=O)[C@H](Cc2ccccc2)NC1=O` [CH2 CO.FFWD KTFC.[BAM]] ({CH2CO}-FF[dW]KTFC-X3; thioether N-7), 1.9 nM. Next, `CC(C)[C@@H]1NC(=O)[C@H](CCCCN)NC(=O)[C@@H](Cc2c[nH]c3ccccc23)NC(=O)[C@H](Cc2ccc(O)cc2)NC(=O)[C@H](Cc2ccccc2)N(C)C(=O)[C@H](CCCCNC(=O)CCCCN(CCNCC(C)(C)S)CC(C)(C)S)NC1=O` [cyclo.(N--CH3)F.YWD KV.K.[BAT], cyclo.(N--CH3)Phe--Tyr--D--Trp--Lys--Val--Lys(BAT)] (cyclo([NMeF]Y[dW]KVK(X9))): 0.46 nM; `C[C@@H](O)[C@@H]1NC(=O)[C@H](CCCCN)NC(=O)[C@@H](Cc2c[nH]c3ccccc23)NC(=O)[C@H](Cc2ccccc2)NC(=O)[C@H](Cc2ccccc2)NC(=O)CSCCC[C@@H](C(N)=O)NC(=O)[C@H](Cc2ccccc2)NC1=O` [CH2 CO.FFWD KTF.Hhc.amide] (FF[dW]KTF[hhCys(CH2CO)]-NH2; lactam N-7): 0.41 nM. Next, `C[C@@H](O)[C@@H]1NC(=O)[C@H](CCCCN)NC(=O)[C@@H](Cc2c[nH]c3ccccc23)NC(=O)[C@H](Cc2ccccc2)NC(=O)[C@H](Cc2ccccc2)NC(=O)CSC[C@@H](C(N)=O)NC(=O)[C@H](Cc2ccccc2)NC1=O` [CH2 CO.FFWD KTFC.amide] ({CH2CO}-FF[dW]KTFC-NH2; thioether N-7): 0.45 nM.
